Source: ChEMBL document CHEMBL1201862, “PubChem BioAssay data set” (2004)
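48-hour exposure; five concentrations; linearly interpolated endpoints. At the GI50, growth is halved.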 Active and inactive are the calls of the source. No stated cut-off is given here; in the data, active = GI50 up to about 1.1 µM and inactive = higher.

How the values were obtained:
Assay in all cases: NCI anticancer screen, dose series, 48 h
KM-20L2 = test system: KM-20L2
KM12 = test system: KM12
HCT-116 = test system: HCT-116
SW-620 = test system: SW-620
ACHN = test system: ACHN
IGROV-1 = test system: IGROV-1
OVCAR-4 = test system: OVCAR-4
HT-29 = test system: HT-29
786-0 = test system: 786-0
SN12C = test system: SN12C
A498 = test system: A498
U-251 = test system: U-251
SNB-19 = test system: SNB-19
OVCAR-3 = test system: OVCAR-3
NCI-H460 = test system: NCI-H460
EKVX = test system: EKVX
SK-MEL-28 = test system: SK-MEL-28

Measured: GI50

O=C1CCC(=O)c2ccccc2N1
inactive: KM-20L2 > 100 µM | KM12 > 100 µM | HCT-116 > 100 µM | SW-620 > 100 µM | ACHN > 100 µM | IGROV-1 > 100 µM | OVCAR-4 > 100 µM | HT-29 > 100 µM | 786-0 > 100 µM | SN12C > 100 µM | A498 > 100 µM | U-251 > 100 µM | SNB-19 > 100 µM | OVCAR-3 > 100 µM | NCI-H460 > 100 µM | EKVX > 100 µM | SK-MEL-28 > 100 µM

CCc1ccccc1NC(=O)C(=O)C(C(=O)c1ccc(OC)cc1)c1ccc(OC)cc1 (stereo not given)
inactive: KM-20L2 > 100 µM | KM12 > 100 µM | HCT-116 > 100 µM | SW-620 > 100 µM | ACHN > 100 µM | IGROV-1 > 100 µM | OVCAR-4 > 100 µM | HT-29 > 100 µM | 786-0 > 100 µM | SN12C > 100 µM | A498 > 100 µM | U-251 > 100 µM | SNB-19 > 100 µM | OVCAR-3 > 100 µM | NCI-H460 > 100 µM | EKVX > 100 µM

CCOC(=O)N1CCc2cc(OC)c(OC)c3c2C1CC3=O (stereo not given)
inactive: KM-20L2 > 100 µM | KM12 > 100 µM | HCT-116 > 100 µM | SW-620 > 100 µM | ACHN > 100 µM | IGROV-1 > 100 µM | OVCAR-4 > 100 µM | HT-29 > 100 µM | 786-0 > 100 µM | SN12C > 100 µM | A498 > 100 µM | U-251 > 100 µM | SNB-19 > 100 µM | NCI-H460 > 100 µM

CN(OC(=O)CC(=O)c1ccccc1)C(=O)Cc1ccccc1
inactive: KM-20L2 > 100 µM | KM12 > 100 µM | HCT-116 > 100 µM | SW-620 > 100 µM | ACHN > 100 µM | IGROV-1 > 100 µM | OVCAR-4 > 100 µM | HT-29 > 100 µM | 786-0 > 100 µM | SN12C > 100 µM | A498 > 100 µM | U-251 > 100 µM | SNB-19 > 100 µM | OVCAR-3 > 100 µM | NCI-H460 > 100 µM | EKVX > 100 µM

OCCN1CCN2C=C(C3CCCC4N(CCO)CCN34)CCC21 (stereo not given)
inactive: KM-20L2 > 100 µM | KM12 > 95.7 µM | HCT-116 24.9 µM | SW-620 23.6 µM | ACHN > 49.2 µM | IGROV-1 76 µM | OVCAR-4 52.8 µM | HT-29 68.9 µM | 786-0 41.7 µM | SN12C 39.5 µM | A498 > 100 µM | U-251 41.4 µM | SNB-19 > 100 µM | OVCAR-3 35.4 µM | NCI-H460 > 100 µM | EKVX > 69.7 µM | SK-MEL-28 42 µM

Cc1nc(Nc2ccc(Cl)cc2)sc1C(=O)NNC(=S)NN
inactive: KM-20L2 17.5 µM | KM12 20.1 µM | HCT-116 17 µM | SW-620 19.5 µM | ACHN 19.5 µM | IGROV-1 25.9 µM | OVCAR-4 17.7 µM | 786-0 16.6 µM | SN12C 18.1 µM | A498 15.3 µM | U-251 17.5 µM | SNB-19 18.9 µM | OVCAR-3 19.3 µM | NCI-H460 19.7 µM | EKVX 16.9 µM | SK-MEL-28 19.3 µM

Cc1ccc(C)c(NC(=O)CC/C(=N\NC(=O)C(N)=O)C(C)C(=O)c2ccc(O)cc2)c1 (stereo not given)
inactive: KM-20L2 > 100 µM | KM12 > 100 µM | HCT-116 > 100 µM | SW-620 > 100 µM | ACHN > 100 µM | IGROV-1 > 100 µM | OVCAR-4 > 100 µM | HT-29 > 100 µM | 786-0 > 100 µM | SN12C > 100 µM | U-251 > 100 µM | SNB-19 > 100 µM | OVCAR-3 > 100 µM | NCI-H460 > 100 µM | EKVX > 100 µM | SK-MEL-28 > 100 µM

Cn1nc(-c2ccccc2)c(N=[N+]=[N-])cc1=O
inactive: KM-20L2 > 100 µM | KM12 > 100 µM | HCT-116 > 100 µM | SW-620 > 100 µM | ACHN > 100 µM | IGROV-1 > 100 µM | OVCAR-4 > 100 µM | HT-29 > 100 µM | 786-0 > 100 µM | SN12C > 100 µM | A498 > 100 µM | U-251 > 100 µM | SNB-19 > 100 µM | OVCAR-3 > 100 µM | NCI-H460 > 100 µM | EKVX > 100 µM | SK-MEL-28 > 100 µM

CN(C)c1ccc(/C=C2\Cc3ccccc3C2=O)cc1Br
inactive: KM-20L2 81.8 µM | KM12 43.2 µM | SW-620 59.3 µM | ACHN 45.8 µM | IGROV-1 > 100 µM | OVCAR-4 41.8 µM | HT-29 34.8 µM | 786-0 54.1 µM | SN12C 51.5 µM | A498 > 100 µM | U-251 53.3 µM | SNB-19 > 100 µM | OVCAR-3 > 100 µM | NCI-H460 53.6 µM | EKVX 76.6 µM | SK-MEL-28 39 µM

N#C/C(=C1\OC(=N)C(c2ccc(Cl)cc2)=C1O)c1ccc(Cl)cc1
inactive: KM-20L2 18.4 µM | KM12 16.6 µM | HCT-116 17.3 µM | SW-620 13.2 µM | ACHN 17.6 µM | IGROV-1 15.7 µM | OVCAR-4 15.9 µM | HT-29 18.9 µM | 786-0 16 µM | SN12C 11 µM | A498 17.2 µM | U-251 15.3 µM | SNB-19 19.6 µM | OVCAR-3 14.8 µM | NCI-H460 17.3 µM | EKVX 17.7 µM | SK-MEL-28 26.5 µM

COC(=O)C1[C@@H](C(=O)OC)C(=O)O[C@H]1c1cc(OC)c(OC)c(OC)c1 (stereo not given in full)
inactive: KM-20L2 > 100 µM | KM12 > 100 µM | HCT-116 > 100 µM | SW-620 > 100 µM | ACHN > 100 µM | IGROV-1 > 100 µM | OVCAR-4 > 100 µM | HT-29 > 100 µM | 786-0 > 100 µM | SN12C > 100 µM | A498 48.5 µM | U-251 > 100 µM | SNB-19 > 100 µM | OVCAR-3 > 100 µM | NCI-H460 > 100 µM | SK-MEL-28 > 100 µM

CCCCCCCCCCCCCCCCCC[N+](C)(C)Cc1ccc(C[N+](C)(C)CCCCCCCCCCCCCCCCCC)cc1
inactive: KM-20L2 31.3 µM | KM12 12.4 µM | HCT-116 14.2 µM | SW-620 18.2 µM | ACHN 10.4 µM | IGROV-1 16.6 µM | OVCAR-4 9.53 µM | HT-29 18.7 µM | 786-0 12.7 µM | SN12C 10.9 µM | A498 22.8 µM | U-251 7.98 µM | SNB-19 14.1 µM | OVCAR-3 7.01 µM | NCI-H460 17.6 µM | EKVX 18.9 µM | SK-MEL-28 18.1 µM
